Results on 6 molecules are retold here after EP0717990B1, “COMPOSITION FOR REMEDYING DRUG DEPENDENCE” (TAISHO PHARMACEUTICAL CO. LTD, priority 1993, dated 1995).

Read-outs that look alike come from different tables or passages of the source.

The test system of series [1] is cocaine-dependent monkeys. As to the kind of experiment: Effect on cocaine-dependent monkeys (drug self-administration). Format: in vivo, male cynomolgus monkeys. The conditions noted are these: cocaine intake per day, cocaine-dependent cynomolgus monkeys. How it is done: [Investigation on an effect on cocaine-dependent monkeys]
A test was carried out according to the method described in Drug and Alcohol Dependence, 1989, Vol. 24, pp. 135-142.
A catheter was allowed to indwell chronically in the vein of each monkey and the investigation was carried out by a drug self-administration experimental method in which a definite amount of a liquid drug was automatically poured according to a reinforcement schedule when the animal pushed a lever. When the cocaine intake per day was 20 mg/kg/day or more for 10 consecutive weeks or more, it was judged that the dependence was caused.

The test system of series [2] is phencyclidine (PCP)-induced abnormal behavior. Kind of series: Antagonism against phencyclidine (PCP)-induced abnormal behavior (head weaving). The conditions noted are these: Rattus norvegicus, read-out: ED50 value (mg/kg).
The subject of another series is alcohol dependence. Kind of series: Effect on alcohol dependence (conditioned place preference in shuttle box). The conditions noted are these: rats; for Desire-arising effect for ethanol treatment compartment: 30 minutes before ethanol administration. The format is in vivo, male Wistar strain rats. As for the experimental part: [Investigation on an effect on alcohol dependence]
A test was carried out according to the method described in Pharmacology Biochemistry and Behavior, Vol. 35, pp. 485-487 (1990).
Compound B used according to the present invention was administered in a dose of 0.1 or 1 mg/kg 30 minutes before ethanol administration in each run.
An experimental apparatus was a 2-compartments box (width 30 cm, length 60 cm, height 30 cm) made of acrylic plates and divided equally into a white compartment and a black compartment by a guillotine door provided in the middle of the box. In addition, the floor of the box had been made non-slip in the white compartment and slippery in the black compartment, that is, the box used was a so-called shuttle box capable of giving both a visual stimulus of black and white and a tactile stimulus of the floor.
Conditioning was carried out once a day for 6 days. Each rat was treated with ethanol (0.5 or 1 g/kg) or physiological saline and then confined in one of the compartment for 50 minutes. The next day, the rat was subjected to a treatment different from that carried out on the previous day, and then confined in the other compartment for 50 minutes. The above procedure was repeated three times. For minimizing the influence of the difference of the conditioning procedure on the result, a counter balance method was adopted, that is, there were employed the following 4 combinations of the ethanol treatment or the physiological saline treatment and the white or black compartment: • 1) ethanol and white; physiological saline and black on the next day, • 2) physiological saline and black; ethanol and white on the next day, • 3) ethanol and black; physiological saline and white on the next day, and • 4) physiological saline and white; ethanol and black on the next day.
As a control group, a group which had been given physiological saline instead of being subjected to ethanol treatment was conditioned in the same manner as above.
After 6 days of the conditioning procedure, each run of measuring the length of stay in each compartment was carried out for 15 minutes. Neither ethanol nor physiological saline was administered to the conditioned rats. In the apparatus, a platform (width 2 cm, length 5 cm) made of a wire net and having a gray color intermediate between white and black was set in the middle of the box, i.e., the compartmenting portion. The length of stay was measured as follows: each rat was placed on the platform, and then a time for which the forefeet and head of the rat were in the black or white compartment was measured as a length of stay in the black or white compartment, respectively, for 15 minutes after the rat got down the platform to become able to come from or go to any of the white and black compartments freely. The desire-arising effect for the drug treatment compartment, i.e., the place preference was determined in terms of a value obtained by subtracting the length of stay in the physiological saline treatment compartment from the length of stay in the drug treatment compartment.

Series [3] in a line: Single-administration toxicity test. The arrangement: species or system Wistar strain rats. The conditions noted are these: Wistar, rat, in vivo, oral, observation 14 days, read-out: Approximate LD50. As for the experimental part: [Single-administration toxicity test]
Kind of animal: Wistar strain rats, male and female, 6 to 7 weeks old (at the time of administration). Number of animals: 5 males and 5 females in each group. Administration route: Oral. Number of groups: male 6 groups, female 6 groups. Administered drug: N,N-di-n-propyl-2-[4-methoxy-3-(2-phenylethoxy)phenyl]ethylamine hydrochloride. Dosage form: a solution in distilled water. Dose: male 312 to 891 mg/kg, female 240 to 685 mg/kg (common ratio […]). Observation time: 14 days.

Another series concerns sigma receptor. The settings on record: result in words; cited from earlier work.
For another series, the target named is D1 (Homo sapiens, UniProt P21728). The settings on record: result in words; cited from earlier work.
In another series the target is D2 (Homo sapiens, UniProt P14416). The settings on record: result in words; cited from earlier work.
The target of the next series is T1, 5-HT1A (Homo sapiens, UniProt P08908).
T1 sequence (P08908 1-422): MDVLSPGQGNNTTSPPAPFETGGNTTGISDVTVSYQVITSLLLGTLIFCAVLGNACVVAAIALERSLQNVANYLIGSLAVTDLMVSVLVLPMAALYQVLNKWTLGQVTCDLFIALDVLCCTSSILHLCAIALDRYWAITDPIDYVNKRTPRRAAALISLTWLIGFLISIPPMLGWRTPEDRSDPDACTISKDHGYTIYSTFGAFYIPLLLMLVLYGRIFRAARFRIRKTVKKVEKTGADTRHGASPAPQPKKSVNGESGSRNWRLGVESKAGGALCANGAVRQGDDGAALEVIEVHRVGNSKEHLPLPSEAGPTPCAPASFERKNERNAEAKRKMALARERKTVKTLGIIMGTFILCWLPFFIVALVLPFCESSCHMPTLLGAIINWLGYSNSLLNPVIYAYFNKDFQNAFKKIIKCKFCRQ
The conditions noted are these: result in words; cited from earlier work.

For the next series, the target named is 5-HT2 (Homo sapiens, UniProt P28223). The conditions noted are these: result in words; cited from earlier work.
[4] abbreviates: orally administered in a dose of 0.1 mg/kg.

D2, sequence (P14416 whole entry): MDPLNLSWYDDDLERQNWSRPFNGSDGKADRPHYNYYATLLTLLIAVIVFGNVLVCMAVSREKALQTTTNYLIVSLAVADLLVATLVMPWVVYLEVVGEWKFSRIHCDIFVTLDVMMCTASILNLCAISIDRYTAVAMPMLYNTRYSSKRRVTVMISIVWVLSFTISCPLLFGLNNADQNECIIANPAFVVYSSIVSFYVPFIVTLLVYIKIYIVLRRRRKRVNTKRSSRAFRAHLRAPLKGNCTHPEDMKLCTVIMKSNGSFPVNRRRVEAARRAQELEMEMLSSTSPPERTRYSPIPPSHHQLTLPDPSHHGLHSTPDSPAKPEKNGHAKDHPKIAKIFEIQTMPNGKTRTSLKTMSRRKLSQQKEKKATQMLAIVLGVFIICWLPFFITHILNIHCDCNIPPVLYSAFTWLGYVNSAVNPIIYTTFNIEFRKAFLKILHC
5-HT2, sequence (P28223 whole entry): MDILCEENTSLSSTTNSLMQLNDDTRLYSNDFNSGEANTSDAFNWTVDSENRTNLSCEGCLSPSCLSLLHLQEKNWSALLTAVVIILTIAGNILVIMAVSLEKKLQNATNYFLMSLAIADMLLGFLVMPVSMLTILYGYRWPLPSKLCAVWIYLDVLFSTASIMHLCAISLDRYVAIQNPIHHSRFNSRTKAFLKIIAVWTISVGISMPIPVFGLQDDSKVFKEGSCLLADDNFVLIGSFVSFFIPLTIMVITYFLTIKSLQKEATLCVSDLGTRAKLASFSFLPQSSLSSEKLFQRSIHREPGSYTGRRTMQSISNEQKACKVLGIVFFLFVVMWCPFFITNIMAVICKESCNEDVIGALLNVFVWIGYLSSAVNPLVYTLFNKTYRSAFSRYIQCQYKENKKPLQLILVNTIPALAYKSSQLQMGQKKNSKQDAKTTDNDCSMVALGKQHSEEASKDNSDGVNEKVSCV
D1, sequence (P21728 whole entry): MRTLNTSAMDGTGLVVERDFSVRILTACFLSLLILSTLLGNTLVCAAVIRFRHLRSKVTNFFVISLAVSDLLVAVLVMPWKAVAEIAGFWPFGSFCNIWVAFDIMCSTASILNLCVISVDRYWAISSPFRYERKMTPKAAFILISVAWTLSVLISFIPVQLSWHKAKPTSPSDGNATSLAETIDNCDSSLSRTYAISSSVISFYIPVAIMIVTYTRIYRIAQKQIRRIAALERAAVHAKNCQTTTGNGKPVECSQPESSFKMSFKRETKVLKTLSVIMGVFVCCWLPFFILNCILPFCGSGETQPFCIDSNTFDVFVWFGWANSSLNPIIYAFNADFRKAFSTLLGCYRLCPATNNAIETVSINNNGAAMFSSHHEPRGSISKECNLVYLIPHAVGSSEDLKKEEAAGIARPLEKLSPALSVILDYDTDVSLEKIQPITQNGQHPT

As for `C[C@@H]1CN(CCCn2c3ccccc3c3ccccc32)C[C@H](C)N1` [Rimcazole, reference compound], in [1] (orally administered in a dose of 10 mg/kg), the “Percentage of decrease in cocaine intake (%)” value (from here on “Percentage of decrease … (%)”) is listed as 28.0%. For the same molecule, the ED50 in [2] worked out at 28 mg/kg.
Take `CCCN(CCC)CCc1cc(Cl)ccc1OCCc1ccccc1.O=C(O)C(=O)O` [A, N,N-di-n-propyl-2-[5-chloro-2-(2-phenylethoxy)phenyl]ethylamine oxalate]: the “Percentage of decrease … (%)” value in series [1] (setting [4]) worked out at 62.6%. Moreover, the ED50 in series [2] was 0.3 mg/kg.
Regarding `CCCN(CCC)CCc1ccc(OC)c(OCCc2ccccc2)c1.Cl` [Compound B, N,N-di-n-propyl-2-[4-methoxy-3-(2-phenylethoxy)phenyl]ethylamine hydrochloride], the “Percentage of decrease … (%)” value in series [1] (setting [4]) worked out at 89.3%. In addition, the ethanol dependence result in the series on alcohol dependence (0.1 or 1 mg/kg, result in words) is listed as “suppressed the ethanol dependence in a dose-dependent manner”. The “Desire-arising effect for ethanol treatment compartment” value in the series on alcohol dependence (Ethanol (0.5 g/kg) + B 0.1 mg/kg) worked out at 104 ± 41; in the series on alcohol dependence (Ethanol (0.5 g/kg) + B 1 mg/kg), 11 ± 32; with alcohol dependence (Ethanol (1 g/kg) + B 0.1 mg/kg) it was 101 ± 47; with alcohol dependence (Ethanol (1 g/kg) + B 1 mg/kg), 9 ± 12. Moreover, the LD50 at 14 days in series [3] (female rats) lay within 312 to 406 mg/kg; in series [3] (male rats) it was 685 to 891 mg/kg. In addition, the ED50 in series [2] was determined as 0.12 mg/kg.
As for `CCCN(CCC)CCCc1ccc(OC)c(OCCc2ccccc2)c1.Cl` [C, N,N-di-n-propyl-3-[4-methoxy-3-(2-phenylethoxy)phenyl]propylamine hydrochloride], the “Percentage of decrease … (%)” value in series [1] (setting [4]) was 77.1%. Moreover, in series [2], the ED50 amounted to 0.22 mg/kg.
In the same order, the values of `CCCN(CCC)CCc1cccc(OC)c1OCCc1ccccc1.Cl` [D, N,N-di-n-propyl-2-[3-methoxy-2-(2-phenylethoxy)phenyl]ethylamine hydrochloride] are 49.3% and 0.27 mg/kg.
`CCCN(CCC)CCc1ccc(OC)c(OCCc2ccccc2)c1` [N,N-dipropyl-2-[4-methoxy-3-(2-phenylethoxy)phenyl]ethylamine]: the “affinity to sigma receptor” value with sigma receptor is “high affinity”. For the same molecule, at D1, the “affinity for D1” value is recorded as “low affinity”. Moreover, the “affinity for D2” value at D2 was “low affinity”. The “affinity for 5-HT1A” value at 5-HT1A was “low affinity”. Further, the “affinity for 5-HT2” value on 5-HT2 is recorded as “low affinity”.
